Usually IC50 stands for the midpoint of a concentration-inhibition curve.

Assay [1] concerns the target Recombinant purified human JAK3 (Homo sapiens (Human), UniProt P52333). Kind of assay: JAK3 kinase inhibitory activity, ADP-Glo kinase assay kit (Promega V9441). The class given is biochemical. The conditions noted are these: ATP 5 uM, 4 ng JAK3 per reaction, 1 hour at 30° C., chemiluminescence. On the procedure: (§1) JAK3 and BTK kinase inhibitory activities were measured for the compounds prepared in the above Examples through in vitro analysis on the ADP Glow (Glo) platform.
(§2) Specifically, the inhibitory activities of JAK3 and BTK kinase were measured using a JAK3 kinase assay kit (Promega, V9441) and a BTK kinase assay kit (Promega, V9071) which were purchased from Promega. Recombinant purified human JAK3 and BTK were diluted with 1× kinase reaction buffer (JAK3: 40 mM Tris-Cl, pH 7.5, 20 mM MgCl2, 0.1 mg/mL BSA and 50 uM DTT/BTK: 40 mM Tris-Cl, pH 7.5, 20 mM MgCl2, 0.1 mg/mL BSA, 2 mM MnCl2 and 50 uM DTT) and added to a 96 well plate (JAK3: final concentration of 4 ng per reaction/BTK: final concentration of 8 ng per reaction). […] After incubation (30° C.) for 1 hour, equivalent volume (25 uL per reaction) of ADP Glo was added and incubated (30° C.) for 40 minutes at room temperature. Then, a kinase detection reagent (50 uL per reaction) was added and incubated (30° C.) for 30 minutes at room temperature. The kinase activity was measured by chemiluminescence according to the instructions of ADP Glo kinase assay kit, and the inhibitory activity of the compounds according to the present invention was calculated.
For orientation: In ADP-Glo the light output rises with the ADP produced.

Assay [2] deals with Recombinant purified human BTK (Homo sapiens (Human), UniProt Q06187). Kind of assay: BTK kinase inhibitory activity, ADP-Glo kinase assay kit (Promega V9071). The assay is classed as biochemical. The note with it: ATP 10 uM, 8 ng BTK per reaction, 1 hour at 30° C., chemiluminescence. As for the experimental part:
as §1, §2

Chain of Recombinant purified human BTK (Q06187 whole entry): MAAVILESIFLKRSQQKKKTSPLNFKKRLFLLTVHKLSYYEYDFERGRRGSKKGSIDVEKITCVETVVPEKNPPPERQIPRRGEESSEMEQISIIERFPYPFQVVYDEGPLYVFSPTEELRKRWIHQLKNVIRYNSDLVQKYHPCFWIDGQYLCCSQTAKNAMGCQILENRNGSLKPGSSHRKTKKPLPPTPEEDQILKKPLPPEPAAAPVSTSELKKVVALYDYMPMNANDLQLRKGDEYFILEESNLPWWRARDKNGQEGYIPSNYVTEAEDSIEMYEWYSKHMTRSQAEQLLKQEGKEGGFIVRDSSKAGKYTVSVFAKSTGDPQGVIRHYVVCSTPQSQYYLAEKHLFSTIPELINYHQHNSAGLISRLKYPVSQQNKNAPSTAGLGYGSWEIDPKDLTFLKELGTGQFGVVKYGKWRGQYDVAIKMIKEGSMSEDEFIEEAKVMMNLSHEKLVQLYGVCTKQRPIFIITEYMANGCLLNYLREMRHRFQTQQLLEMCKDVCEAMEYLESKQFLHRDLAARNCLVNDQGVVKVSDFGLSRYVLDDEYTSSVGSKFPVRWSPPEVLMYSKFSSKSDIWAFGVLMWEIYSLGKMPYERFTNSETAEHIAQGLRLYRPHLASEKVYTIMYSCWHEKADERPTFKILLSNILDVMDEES
Chain of Recombinant purified human JAK3 (P52333 whole entry): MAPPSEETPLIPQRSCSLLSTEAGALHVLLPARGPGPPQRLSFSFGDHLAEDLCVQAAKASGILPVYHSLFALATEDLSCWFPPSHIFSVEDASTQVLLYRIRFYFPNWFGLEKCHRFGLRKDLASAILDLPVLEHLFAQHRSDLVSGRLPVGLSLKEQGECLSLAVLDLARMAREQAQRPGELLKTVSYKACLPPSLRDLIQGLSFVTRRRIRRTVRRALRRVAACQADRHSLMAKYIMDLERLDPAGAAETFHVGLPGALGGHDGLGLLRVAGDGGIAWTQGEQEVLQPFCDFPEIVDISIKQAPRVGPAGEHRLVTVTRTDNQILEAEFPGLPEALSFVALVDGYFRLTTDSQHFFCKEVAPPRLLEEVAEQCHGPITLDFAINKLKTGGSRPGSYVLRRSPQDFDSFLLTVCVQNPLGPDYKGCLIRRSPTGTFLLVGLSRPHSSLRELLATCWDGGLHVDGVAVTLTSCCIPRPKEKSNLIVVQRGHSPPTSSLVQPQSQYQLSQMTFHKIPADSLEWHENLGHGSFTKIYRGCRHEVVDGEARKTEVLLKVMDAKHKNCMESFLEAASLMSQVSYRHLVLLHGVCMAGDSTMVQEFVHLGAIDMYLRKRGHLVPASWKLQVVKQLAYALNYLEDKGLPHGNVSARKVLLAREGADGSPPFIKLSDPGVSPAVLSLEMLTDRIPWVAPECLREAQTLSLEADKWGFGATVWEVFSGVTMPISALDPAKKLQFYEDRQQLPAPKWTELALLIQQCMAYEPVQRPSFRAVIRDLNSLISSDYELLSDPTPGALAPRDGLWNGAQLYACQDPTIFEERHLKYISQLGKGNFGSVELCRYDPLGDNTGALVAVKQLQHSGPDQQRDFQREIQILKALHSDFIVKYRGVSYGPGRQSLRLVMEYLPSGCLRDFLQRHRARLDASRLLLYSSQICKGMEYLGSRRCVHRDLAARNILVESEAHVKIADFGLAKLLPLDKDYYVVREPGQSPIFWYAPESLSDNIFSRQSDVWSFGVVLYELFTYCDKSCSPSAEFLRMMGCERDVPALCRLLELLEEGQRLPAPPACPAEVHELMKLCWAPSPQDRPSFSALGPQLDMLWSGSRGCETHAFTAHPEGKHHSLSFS

For `C=CC(=O)Nc1cccc(Oc2nc(Nc3ccc(N(C)C)cc3)nn3cccc23)c1` [Example 23, N-(3-((2-((4-(dimethylamino)phenyl)amino)pyrrolo[2,1-f][1,2,4]triazin-4-yl)oxy)phenyl)acrylamide], the results for the IC50 in assay [1] and in assay [2] were 10.4 nM and 60.2 nM, respectively.
Regarding `C=CC(=O)Nc1cccc(Oc2nc(Nc3cc4n(n3)CCN(C)C4)nn3cccc23)c1` [Example 24, N-(3-((2-((5-methyl-4,5,6,7-tetrahydropyrazolo[1,5-a]pyrazin-2-yl)amino)pyrrolo[2,1-f][1,2,4]triazin-4-yl)oxy)phenyl)acrylamide], the IC50 in assay [1] was 18.8 nM; in assay [2], 166 nM.
Take `C=CC(=O)Nc1ccc(F)c(Oc2nc(Nc3ccc(N4CCN(C)CC4)cc3)nn3cccc23)c1` [Example 25, N-(4-fluoro-3-((2-((4-(4-methylpiperazin-1-yl)phenyl)amino)pyrrolo[2,1-f][1,2,4]triazin-4-yl)oxy)phenyl)acrylamide]: the IC50 in assay [1] stood at 1.4 nM; in assay [2] it was 7.9 nM.
Take `C=CC(=O)Nc1ccc(F)c(Oc2nc(Nc3cnn(CC(F)F)c3)nn3cccc23)c1` [Example 26, N-(3-((2-((1-(2,2-difluoroethyl)-1H-pyrazol-4-yl)amino)pyrrolo[2,1-f][1,2,4]triazin-4-yl)oxy)-4-fluorophenyl)acrylamide]: the IC50 in assay [1] is 0.9 nM; in assay [2], 6.2 nM.
On the same counts, the results for `C=CC(=O)Nc1ccc(F)c(Oc2nc(Nc3cnn(C)c3)nn3cccc23)c1` [Example 27, N-(4-fluoro-3-((2-((1-methyl-1H-pyrazol-4-yl)amino)pyrrolo[2,1-f][1,2,4]triazin-4-yl)oxy)phenyl)acrylamide] are 0.7 nM and 5 nM.
On the same counts, the results for `C=CC(=O)Nc1ccc(F)c(Oc2nc(Nc3ccc(OC)cc3)nn3cccc23)c1` [Example 28, N-(4-fluoro-3-((2-((4-methoxyphenyl)amino)pyrrolo[2,1-f][1,2,4]triazin-4-yl)oxy)phenyl)acrylamide] are 9.2 nM and 52 nM.
On the same counts, the results for `C=CC(=O)Nc1ccc(F)c(Oc2nc(Nc3ccc(C(=O)N4CCOCC4)cc3)nn3cccc23)c1` [Example 29, N-(4-fluoro-3-((2-((4-(morpholine-4-carbonyl)phenyl)amino)pyrrolo[2,1-f][1,2,4]triazin-4-yl)oxy)phenyl)acrylamide] are 2 nM and 23.1 nM.
For the compound `C=CC(=O)Nc1ccc(F)c(Oc2nc(Nc3ccsc3)nn3cccc23)c1` [Example 30, N-(4-fluoro-3-((2-((thiophen-3-yl)amino)pyrrolo[2,1-f][1,2,4]triazin-4-yl)oxy)phenyl)acrylamide], the IC50 in assay [1] is 7.6 nM; in assay [2], 66.6 nM.
With `C=CC(=O)Nc1ccc(F)c(Oc2nc(Nc3ccc(N4CCOCC4)cc3)nn3cccc23)c1` [Example 31, N-(4-fluoro-3-((2-((4-morpholinophenyl)amino)pyrrolo[2,1-f][1,2,4]triazin-4-yl)oxy)phenyl)acrylamide], the values for the IC50 in assay [1] and in assay [2] were 4.5 nM and 27.4 nM, respectively.
In the same order, the values of `C=CC(=O)Nc1ccc(F)c(Oc2nc(Nc3cnn(CCC)c3)nn3cccc23)c1` [Example 32, N-(4-fluoro-3-((2-((1-propyl-1H-pyrazol-4-yl)amino)pyrrolo[2,1-f][1,2,4]triazin-4-yl)oxy)phenyl)acrylamide] are 1.4 nM and 9.1 nM.
On the same counts, the results for `C=CC(=O)Nc1ccc(F)c(Oc2nc(Nc3cnn(C(F)F)c3)nn3cccc23)c1` [Example 33, N-(3-((2-((1-(difluoromethyl)-1H-pyrazol-4-yl)amino)pyrrolo[2,1-f][1,2,4]triazin-4-yl)oxy)-4-fluorophenyl)acrylamide] are 2.8 nM and 15.3 nM.
In the same order, the values of `C=CC(=O)Nc1ccc(F)c(Oc2nc(Nc3cnn(C4CCOCC4)c3)nn3cccc23)c1` [Example 34, N-(4-fluoro-3-((2-((1-(tetrahydro-2H-pyran-4-yl)-1H-pyrazol-4-yl)amino)pyrrolo[2,1-f][1,2,4]triazin-4-yl)oxy)phenyl)acrylamide] are 0.5 nM and 2.4 nM.
Regarding `C=CC(=O)Nc1ccc(F)c(Oc2nc(Nc3cnn(CCN4CCOCC4)c3)nn3cccc23)c1` [Example 35, N-(4-fluoro-3-((2-((1-(2-morpholinoethyl)-1H-pyrazol-4-yl)amino)pyrrolo[2,1-f][1,2,4]triazin-4-yl)oxy)phenyl)acrylamide], the IC50 turned out to be 0.7 nM in assay [1] and 3.5 nM in assay [2].
As to `C=CC(=O)Nc1ccc(F)c(Oc2nc(Nc3cnn(C(C)C)c3)nn3cccc23)c1` [Example 36, N-(4-fluoro-3-((2-((1-isopropyl-1H-pyrazol-4-yl)amino)pyrrolo[2,1-f][1,2,4]triazin-4-yl)oxy)phenyl)acrylamide], the results for the IC50 in assay [1] and in assay [2] were 1.1 nM and 4.4 nM, respectively.
In the same order, the values of `C=CC(=O)Nc1ccc(F)c(Oc2nc(Nc3cnn(C4CCNCC4)c3)nn3cccc23)c1` [Example 37, N-(4-fluoro-3-((2-((1-(piperidin-4-yl)-1H-pyrazol-4-yl)amino)pyrrolo[2,1-f][1,2,4]triazin-4-yl)oxy)phenyl)acrylamide] are 11.5 nM and 63.6 nM.
On the same counts, the results for `C=CC(=O)Nc1ccc(F)c(Oc2nc(Nc3cnn(CC(F)(F)F)c3)nn3cccc23)c1` [Example 38, N-(4-fluoro-3-((2-((1-(2,2,2-trifluoroethyl)-1H-pyrazol-4-yl)amino)pyrrolo[2,1-f][1,2,4]triazin-4-yl)oxy)phenyl)acrylamide] are 1.8 nM and 16.5 nM.
In the same order, the values of `C=CC(=O)Nc1ccc(F)c(Oc2nc(Nc3ccc(-n4nc(C)cc4C)cc3)nn3cccc23)c1` [Example 39, N-(3-((2-((4-(3,5-dimethyl-1H-pyrazol-1-yl)phenyl)amino)pyrrolo[2,1-f][1,2,4]triazin-4-yl)oxy)-4-fluorophenyl)acrylamide] are 23.5 nM and 111 nM.
Regarding `C=CC(=O)Nc1ccc(F)c(Oc2nc(Nc3cnn(CCOC)c3)nn3cccc23)c1` [Example 40, N-(4-fluoro-3-((2-((1-(2-methoxyethyl)-1H-pyrazol-4-yl)amino)pyrrolo[2,1-f][1,2,4]triazin-4-yl)oxy)phenyl)acrylamide], the IC50 is 2.8 nM in assay [1] and 23 nM in assay [2].
In the same order, the values of `O=C(CCl)Nc1ccc(F)c(Oc2nc(Nc3cnn(CC(F)F)c3)nn3cccc23)c1` [Example 41, 2-chloro-N-(3-((2-((1-(2,2-difluoroethyl)-1H-pyrazol-4-yl)amino)pyrrolo[2,1-f][1,2,4]triazin-4-yl)oxy)-4-fluorophenyl)acetamide] are 0.7 nM and 1.2 nM.
In the same order, the values of `O=C(CCl)Nc1ccc(F)c(Oc2nc(Nc3cnn(C4CCOCC4)c3)nn3cccc23)c1` [Example 42, 2-chloro-N-(4-fluoro-3-((2-((1-(tetrahydro-2H-pyran-4-yl)-1H-pyrazol-4-yl)amino)pyrrolo[2,1-f][1,2,4]triazin-4-yl)oxy)phenyl)acetamide] are 0.5 nM and 1.3 nM.
In the same order, the values of `CCn1cc(Nc2nc(Oc3cc(NC(=O)CCl)ccc3F)c3cccn3n2)cn1` [Example 43, 2-chloro-N-(3-((2-((1-ethyl-1H-pyrazol-4-yl)amino)pyrrolo[2,1-f][1,2,4]triazin-4-yl)oxy)-4-fluorophenyl)acetamide] are 0.7 nM and 1.2 nM.
`CCn1cc(Nc2nc(Oc3cc(NC(=O)/C=C/CCl)ccc3F)c3cccn3n2)cn1` [Example 44, (E)-4-chloro-N-(3-((2-((1-ethyl-1H-pyrazol-4-yl)amino)pyrrolo[2,1-f][1,2,4]triazin-4-yl)oxy)-4-fluorophenyl)but-2-enamide]: the IC50 is 99.5 nM in assay [1] and 114 nM in assay [2].
On the same counts, the results for `C=CC(=O)Nc1ccc(F)c(Oc2nc(Nc3cnoc3)nn3cccc23)c1` [Example 45, N-(4-fluoro-3-(2-(isoxazol-4-ylamino)pyrrolo[2,1-f][1,2,4]triazin-4-yloxy)phenyl)acrylamide] are 32 nM and 206 nM.
On the same counts, the results for `C=CC(=O)Nc1ccc(Cl)c(Oc2nc(Nc3cnn(CC)c3)nn3cccc23)c1` [Example 46, N-(4-chloro-3-((2-((1-ethyl-1H-pyrazol-4-yl)amino)pyrrolo[2,1-f][1,2,4]triazin-4-yl)oxy)phenyl)acrylamide] are 56.8 nM and 269 nM.
In the same order, the values of `C=CC(=O)Nc1cc(Oc2nc(Nc3cnn(CC)c3)nn3cccc23)ccc1C` [Example 47, N-(5-((2-((1-ethyl-1H-pyrazol-4-yl)amino)pyrrolo[2,1-f][1,2,4]triazin-4-yl)oxy)-2-methylphenyl)acrylamide] are 13 nM and 52.2 nM.
As to `C=CC(=O)Nc1cc(Oc2nc(Nc3cnn(CC(F)F)c3)nn3cccc23)ccc1C` [Example 48, N-(5-((2-((1-(2,2-difluoroethyl)-1H-pyrazol-4-yl)amino)pyrrolo[2,1-f][1,2,4]triazin-4-yl)oxy)-2-methylphenyl)acrylamide], the IC50 in assay [1] came to 13.8 nM; in assay [2], 73.4 nM.

These data come from patent US11084823B2, “Substituted pyrrolo[2,1-f][1,2,4]triazines as kinase inhibitors” (Daewoong Pharmaceutical Co., Ltd., priority 2017, dated 2021).
